Assay results: the supplement of paper PMC10627819

How the values were obtained:
S. pneumoniae D39V = test: fitness (endpoint OD595 vs no drug) (fraction); higher = more growth
In short: (§1)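 Bacterial fitness was scored as optical density at the stationary-phase transition relative to the robust mean of no-drug control wells. Scores are capped at 1. The growth data were OD595 readings every 30 min for 14 h at 37 °C, background-subtracted against the first reading, from 384-well plates inoculated at OD595 0.01 in TSB, LB Lennox or CY.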

B. subtilis 168 = test: as above
In short: as §1
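Further: OD595 on entry to stationary phase over no-drug wells; at most 1.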

CN(C)[C@@H]1C(O)=C(C(N)=O)C(=O)[C@@]2(O)C(O)=C3C(=O)c4c(O)ccc(Cl)c4[C@@](C)(O)[C@H]3C[C@@H]12 [Chlortetracycline] + CN[C@@H]1[C@H](O[C@H]2[C@H](O[C@H]3[C@H](O)[C@@H](O)[C@H](N=C(N)N)[C@@H](O)[C@@H]3N=C(N)N)O[C@@H](C)[C@]2(O)C=O)O[C@@H](CO)[C@H](O)[C@H]1O [Streptomycin]
fitness, S. pneumoniae D39V, one replicate
Conditions | first compound 0.012 µg/mL | first compound 0.024 µg/mL | first compound 0.048 µg/mL
partner 2 µg/mL | 0.886 | 0.861 | 0.794
partner 16 µg/mL | 0.757 | 0.72 | 0.619

fitness
Conditions | partner 2 µg/mL | partner 4 µg/mL | partner 8 µg/mL
B. subtilis 168, first compound 0.0475 µg/mL | 0.863 | 0.729 | –
B. subtilis 168, first compound 0.095 µg/mL | 0.735 | 0.601 | –
B. subtilis 168, first compound 0.19 µg/mL | 0.473 | 0.367 | 0.0988
S. pneumoniae D39V, first compound 0.012 µg/mL | – | 0.898 | 0.829
S. pneumoniae D39V, first compound 0.024 µg/mL | – | 0.827 | 0.794
S. pneumoniae D39V, first compound 0.048 µg/mL | – | 0.762 | 0.779
S. pneumoniae D39V, first compound 0.375 µg/mL | 0.0439 | 0.0457 | 0.0281
S. pneumoniae D39V, first compound 0.75 µg/mL | 0.0196 | 0.0558 | 0.0751
S. pneumoniae D39V, first compound 1.5 µg/mL | 0.0385 | 0.0525 | 0.0578

CN(C)[C@@H]1C(O)=C(C(N)=O)C(=O)[C@@]2(O)C(O)=C3C(=O)c4c(O)ccc(Cl)c4[C@@](C)(O)[C@H]3C[C@@H]12 [Chlortetracycline] + CN(C)c1cc(NC(=O)CNC(C)(C)C)c(O)c2c1C[C@H]1C[C@H]3[C@H](N(C)C)C(O)=C(C(N)=O)C(=O)[C@@]3(O)C(O)=C1C2=O [Tigecycline]
Conditions | fitness
B. subtilis 168, first compound 0.0475 µg/mL, partner 0.039 µg/mL | 0.924
B. subtilis 168, first compound 0.0475 µg/mL, partner 0.078 µg/mL | 0.873
B. subtilis 168, first compound 0.0475 µg/mL, partner 0.156 µg/mL | 0.823
B. subtilis 168, first compound 0.095 µg/mL, partner 0.039 µg/mL | 0.828
B. subtilis 168, first compound 0.095 µg/mL, partner 0.078 µg/mL | 0.781
B. subtilis 168, first compound 0.095 µg/mL, partner 0.156 µg/mL | 0.784
B. subtilis 168, first compound 0.19 µg/mL, partner 0.039 µg/mL | 0.651
B. subtilis 168, first compound 0.19 µg/mL, partner 0.078 µg/mL | 0.605
B. subtilis 168, first compound 0.19 µg/mL, partner 0.156 µg/mL | 0.5
S. pneumoniae D39V, first compound 0.012 µg/mL, partner 0.65 µg/mL | 0.943
S. pneumoniae D39V, first compound 0.012 µg/mL, partner 1.3 µg/mL | 0.98
S. pneumoniae D39V, first compound 0.012 µg/mL, partner 2.6 µg/mL | 0.866
S. pneumoniae D39V, first compound 0.024 µg/mL, partner 0.65 µg/mL | 0.949
S. pneumoniae D39V, first compound 0.024 µg/mL, partner 1.3 µg/mL | 0.909
S. pneumoniae D39V, first compound 0.024 µg/mL, partner 2.6 µg/mL | 0.862
S. pneumoniae D39V, first compound 0.048 µg/mL, partner 0.65 µg/mL | 0.867
S. pneumoniae D39V, first compound 0.048 µg/mL, partner 1.3 µg/mL | 0.814
S. pneumoniae D39V, first compound 0.048 µg/mL, partner 2.6 µg/mL | 0.815
S. pneumoniae D39V, first compound 0.375 µg/mL, partner 0.325 µg/mL | 0.0315
S. pneumoniae D39V, first compound 0.375 µg/mL, partner 0.65 µg/mL | 0.0403
S. pneumoniae D39V, first compound 0.375 µg/mL, partner 1.3 µg/mL | 0.0368
S. pneumoniae D39V, first compound 0.75 µg/mL, partner 0.325 µg/mL | 0.0625
S. pneumoniae D39V, first compound 0.75 µg/mL, partner 0.65 µg/mL | 0.0555
S. pneumoniae D39V, first compound 0.75 µg/mL, partner 1.3 µg/mL | 0.0691
S. pneumoniae D39V, first compound 1.5 µg/mL, partner 0.325 µg/mL | 0.0404
S. pneumoniae D39V, first compound 1.5 µg/mL, partner 0.65 µg/mL | 0.0304
S. pneumoniae D39V, first compound 1.5 µg/mL, partner 1.3 µg/mL | 0.0788

fitness, B. subtilis 168, one replicate
Conditions | first compound 0.0475 µg/mL | first compound 0.095 µg/mL | first compound 0.19 µg/mL
partner 0.125 µg/mL | 0.996 | 0.974 | 0.827
partner 0.25 µg/mL | 0.915 | 0.874 | 0.763
partner 0.5 µg/mL | 0.933 | 0.879 | 0.84
